# Measurements as given in the NIST ThermoML archive (doi:10.1021/je200659c).
# ± gives the expanded uncertainty stated by the source.
# What was measured:
# [1] = xn = mol fraction of the nth substance listed; details: Maximal bubble pressure
# [2] = Maximal bubble pressure
smiles,measurement,setting,value
"COS(=O)(=O)[O-].Cn1cc[n+](C)c1 [1,3-dimethylimidazolium methylsulfate] + O",surface tension liquid-gas,"[1]; 297 K, x1 = 0.008",70.6 ± 0.4 mN/m
same,surface tension liquid-gas,"[1]; 297.1 K, x1 = 0.025",69.5 ± 0.5 mN/m
same,surface tension liquid-gas,"[1]; 297.3 K, x1 = 0.055",68.2 ± 0.6 mN/m
same,surface tension liquid-gas,"[1]; 297.6 K, x1 = 0.093",67.3 ± 0.7 mN/m
same,surface tension liquid-gas,"[1]; 297.6 K, x1 = 0.141",66.4 ± 0.8 mN/m
same,surface tension liquid-gas,"[1]; 297.7 K, x1 = 0.183",65.7 ± 0.6 mN/m
same,surface tension liquid-gas,"[1]; 298 K, x1 = 0.222",65.3 ± 0.6 mN/m
same,surface tension liquid-gas,"[1]; 298.1 K, x1 = 0.261",64.7 ± 1.3 mN/m
same,surface tension liquid-gas,"[1]; 298.1 K, x1 = 0.292",64.7 ± 1.1 mN/m
CCn1cc[n+](C)c1.CS(=O)(=O)[O-] [1-ethyl-3-methylimidazolium methanesulfonate] + O,surface tension liquid-gas,"[1]; 300 K, x1 = 0.002",72.1 ± 1.1 mN/m
same,surface tension liquid-gas,"[1]; 300 K, x1 = 0.03",69.8 ± 1 mN/m
same,surface tension liquid-gas,"[1]; 300.1 K, x1 = 0.025",70.4 ± 0.7 mN/m
same,surface tension liquid-gas,"[1]; 300.2 K, x1 = 0.004",71.6 ± 1.1 mN/m
same,surface tension liquid-gas,"[1]; 300.2 K, x1 = 0.006",71.4 ± 0.7 mN/m
same,surface tension liquid-gas,"[1]; 300.3 K, x1 = 0.01",71.1 ± 0.6 mN/m
same,surface tension liquid-gas,"[1]; 300.4 K, x1 = 0.015",70.7 ± 0.7 mN/m
same,surface tension liquid-gas,"[1]; 300.4 K, x1 = 0.019",70.5 ± 0.6 mN/m
same,surface tension liquid-gas,"[1]; 301 K, x1 = 0.065",67.9 ± 1.1 mN/m
same,surface tension liquid-gas,"[1]; 301.2 K, x1 = 0.274",60.7 ± 0.8 mN/m
same,surface tension liquid-gas,"[1]; 301.3 K, x1 = 0.002",71.4 ± 0.6 mN/m
same,surface tension liquid-gas,"[1]; 301.3 K, x1 = 0.004",70.9 ± 0.7 mN/m
same,surface tension liquid-gas,"[1]; 301.3 K, x1 = 0.007",70.4 ± 0.7 mN/m
same,surface tension liquid-gas,"[1]; 301.3 K, x1 = 0.013",69.8 ± 0.7 mN/m
same,surface tension liquid-gas,"[1]; 301.3 K, x1 = 0.019",69.2 ± 0.8 mN/m
same,surface tension liquid-gas,"[1]; 301.3 K, x1 = 0.026",68.8 ± 0.8 mN/m
same,surface tension liquid-gas,"[1]; 301.3 K, x1 = 0.032",68.4 ± 0.8 mN/m
same,surface tension liquid-gas,"[1]; 301.3 K, x1 = 0.376",59.2 ± 0.5 mN/m
same,surface tension liquid-gas,"[1]; 301.4 K, x1 = 0.01",70.1 ± 0.7 mN/m
same,surface tension liquid-gas,"[1]; 301.7 K, x1 = 0.112",65.6 ± 0.7 mN/m
same,surface tension liquid-gas,"[1]; 301.7 K, x1 = 0.485",58.1 ± 0.5 mN/m
same,surface tension liquid-gas,"[1]; 302.4 K, x1 = 0.08",66 ± 0.8 mN/m
same,surface tension liquid-gas,"[1]; 302.7 K, x1 = 0.133",63.5 ± 0.8 mN/m
same,surface tension liquid-gas,"[1]; 302.7 K, x1 = 0.181",62.9 ± 2.1 mN/m
same,surface tension liquid-gas,"[1]; 302.9 K, x1 = 0.199",61.2 ± 1.8 mN/m
same,surface tension liquid-gas,"[1]; 303.2 K, x1 = 0.474",57.3 ± 0.6 mN/m
same,surface tension liquid-gas,"[1]; 303.3 K, x1 = 0.388",57.7 ± 0.7 mN/m
same,surface tension liquid-gas,"[1]; 303.8 K, x1 = 0.284",58.7 ± 1.5 mN/m
O [water] + CCn1cc[n+](C)c1.CS(=O)(=O)[O-],surface tension liquid-gas,"[1]; 300 K, x2 = 0",71.6 ± 1.1 mN/m
same,surface tension liquid-gas,"[1]; 301.2 K, x2 = 0",71.4 ± 0.7 mN/m
O [water] + CCCCn1cc[n+](C)c1.CS(=O)(=O)[O-],surface tension liquid-gas,"[1]; 297 K, x2 = 0",71.9 ± 2.8 mN/m
same,surface tension liquid-gas,"[1]; 304.3 K, x2 = 0",70.7 ± 0.6 mN/m
same,surface tension liquid-gas,"[1]; 312.4 K, x2 = 0",69.4 ± 0.5 mN/m
same,surface tension liquid-gas,"[1]; 321.3 K, x2 = 0",68.1 ± 1.4 mN/m
O [water],surface tension liquid-gas,[2]; 296.8 K,71.1 ± 0.6 mN/m
same,surface tension liquid-gas,[2]; 297 K,71.9 ± 2.8 mN/m
same,surface tension liquid-gas,[2]; 297.7 K,70.9 ± 0.5 mN/m
same,surface tension liquid-gas,[2]; 300 K,71.6 ± 1.1 mN/m
same,surface tension liquid-gas,[2]; 301.2 K,71.4 ± 0.7 mN/m
same,surface tension liquid-gas,[2]; 304.3 K,70.7 ± 0.6 mN/m
same,surface tension liquid-gas,[2]; 312.4 K,69.4 ± 0.5 mN/m
same,surface tension liquid-gas,[2]; 321.3 K,68.1 ± 1.4 mN/m
O [water] + CCCCCCn1cc[n+](C)c1.[Cl-],surface tension liquid-gas,"[1]; 297.7 K, x2 = 0",70.9 ± 0.5 mN/m
CCCCCCn1cc[n+](C)c1.[Cl-] [1-hexyl-3-methylimidazolium chloride] + O,surface tension liquid-gas,"[1]; 297.2 K, x1 = 0.003",61.8 ± 0.4 mN/m
same,surface tension liquid-gas,"[1]; 297.4 K, x1 = 0.009",55.2 ± 0.4 mN/m
same,surface tension liquid-gas,"[1]; 297.4 K, x1 = 0.02",50.5 ± 0.7 mN/m
same,surface tension liquid-gas,"[1]; 297.6 K, x1 = 0.045",47.6 ± 0.8 mN/m
same,surface tension liquid-gas,"[1]; 297.7 K, x1 = 0.013",52.8 ± 1 mN/m
same,surface tension liquid-gas,"[1]; 297.8 K, x1 = 0.073",46 ± 0.3 mN/m
same,surface tension liquid-gas,"[1]; 297.9 K, x1 = 0.121",43.8 ± 0.3 mN/m
same,surface tension liquid-gas,"[1]; 298 K, x1 = 0.092",45 ± 0.3 mN/m
same,surface tension liquid-gas,"[1]; 298.2 K, x1 = 0.143",43.2 ± 0.3 mN/m
O [water] + COS(=O)(=O)[O-].Cn1cc[n+](C)c1,surface tension liquid-gas,"[1]; 296.8 K, x2 = 0",71.1 ± 0.6 mN/m
CCCCn1cc[n+](C)c1.CS(=O)(=O)[O-] [1-butyl-3-methylimidazolium methanesulfonate] + O,surface tension liquid-gas,"[1]; 297.5 K, x1 = 0.004",65.1 ± 0.7 mN/m
same,surface tension liquid-gas,"[1]; 297.7 K, x1 = 0.014",62.9 ± 0.7 mN/m
same,surface tension liquid-gas,"[1]; 297.8 K, x1 = 0.026",59.6 ± 0.7 mN/m
same,surface tension liquid-gas,"[1]; 297.8 K, x1 = 0.064",53.6 ± 1.2 mN/m
same,surface tension liquid-gas,"[1]; 298 K, x1 = 0.115",50.3 ± 0.7 mN/m
same,surface tension liquid-gas,"[1]; 298 K, x1 = 0.256",45.9 ± 0.5 mN/m
same,surface tension liquid-gas,"[1]; 298.2 K, x1 = 0.173",48.2 ± 0.7 mN/m
same,surface tension liquid-gas,"[1]; 298.2 K, x1 = 0.24",46.7 ± 0.7 mN/m
same,surface tension liquid-gas,"[1]; 298.2 K, x1 = 0.291",45.1 ± 0.3 mN/m
same,surface tension liquid-gas,"[1]; 304.7 K, x1 = 0.005",66.3 ± 0.5 mN/m
same,surface tension liquid-gas,"[1]; 304.8 K, x1 = 0.177",47.9 ± 0.7 mN/m
same,surface tension liquid-gas,"[1]; 304.9 K, x1 = 0.011",63.5 ± 0.5 mN/m
same,surface tension liquid-gas,"[1]; 305.1 K, x1 = 0.109",50.8 ± 0.9 mN/m
same,surface tension liquid-gas,"[1]; 305.1 K, x1 = 0.141",49.5 ± 0.4 mN/m
same,surface tension liquid-gas,"[1]; 305.1 K, x1 = 0.16",48.5 ± 0.5 mN/m
same,surface tension liquid-gas,"[1]; 305.2 K, x1 = 0.017",61.3 ± 0.5 mN/m
same,surface tension liquid-gas,"[1]; 305.2 K, x1 = 0.08",52.4 ± 1.6 mN/m
same,surface tension liquid-gas,"[1]; 305.3 K, x1 = 0.052",55.3 ± 0.5 mN/m
same,surface tension liquid-gas,"[1]; 305.4 K, x1 = 0.027",59.2 ± 0.5 mN/m
same,surface tension liquid-gas,"[1]; 312.2 K, x1 = 0.092",51.4 ± 0.5 mN/m
same,surface tension liquid-gas,"[1]; 312.2 K, x1 = 0.184",47.8 ± 1 mN/m
same,surface tension liquid-gas,"[1]; 312.3 K, x1 = 0.145",49.4 ± 1 mN/m
same,surface tension liquid-gas,"[1]; 312.4 K, x1 = 0.069",53.2 ± 0.5 mN/m
same,surface tension liquid-gas,"[1]; 312.6 K, x1 = 0.005",65.3 ± 0.5 mN/m
same,surface tension liquid-gas,"[1]; 312.6 K, x1 = 0.019",60.3 ± 1.1 mN/m
same,surface tension liquid-gas,"[1]; 312.8 K, x1 = 0.01",62.9 ± 0.5 mN/m
same,surface tension liquid-gas,"[1]; 312.8 K, x1 = 0.041",56.3 ± 1.8 mN/m
same,surface tension liquid-gas,"[1]; 318.1 K, x1 = 0.339",44.2 ± 0.5 mN/m
same,surface tension liquid-gas,"[1]; 318.3 K, x1 = 0.259",45.5 ± 1 mN/m
same,surface tension liquid-gas,"[1]; 318.7 K, x1 = 0.165",47.7 ± 0.7 mN/m
same,surface tension liquid-gas,"[1]; 320.1 K, x1 = 0.034",56.1 ± 0.7 mN/m
same,surface tension liquid-gas,"[1]; 320.1 K, x1 = 0.083",51.4 ± 0.4 mN/m
same,surface tension liquid-gas,"[1]; 320.8 K, x1 = 0.023",58.2 ± 0.7 mN/m
same,surface tension liquid-gas,"[1]; 321.3 K, x1 = 0.013",61 ± 0.9 mN/m
same,surface tension liquid-gas,"[1]; 321.8 K, x1 = 0.004",64.8 ± 1.4 mN/m
